{"source": "patent US12257263B2", "about": "“Pharmaceutical compositions for demodex related blepharitis and eyelid crusting” (Tarsus Pharmaceuticals, Inc., priority 2014, dated 2025)", "key": {"[1]": {"settings": "approximately 0.5% to 1% added to balanced salt solutions; cited from earlier work"}, "eyes of six rabbits": {"system": "eyes of six rabbits", "settings": "cited from earlier work"}, "eye": {"system": "eye", "settings": "human, in vivo", "method": "As this invention is to be used topically, good absorption is achieved by using Propylene Glycol as a solvent for the ivermectin. According to the Cosmetic Ingredients Report Panel Meeting on Jun. 28-29, 2010, the ocular irritation of Propylene Glycol was determined using groups of 6 males and female New Zealand white albino rabbits."}, "[2]": {"system": "New Zealand white albino rabbits", "settings": "undiluted, groups of 6 rabbits; cited from earlier work"}, "rabbit eyes": {"system": "rabbit eyes", "settings": "cited from earlier work"}, "human subjects": {"system": "human subjects", "settings": "formulation containing 7.6% of Ethylhexyl Stearate, cited from earlier work"}, "rabbit's eyes": {"system": "rabbit's eyes", "settings": "cited from earlier work"}, "rabbit skin": {"system": "rabbit skin", "settings": "undiluted test material; cited from earlier work"}, "skin": {"system": "skin", "settings": "6-day cumulative, cited from earlier work"}, "[3]": {"system": "Demodex folliculorum-associated Oculocutaneous Rosacea", "settings": "oral, child, JAMA Dermatol 2014; cited from earlier work"}, "demodex mites": {"system": "demodex mites", "experiment": "Presence of demodex mites in eyelash follicles of treated patients", "format": "in vivo, demodex folliculorum"}}, "note": "Like-named read-outs stand apart in the source and are kept apart here."}
{"smiles": "O=C(O)CN(CCN(CC(=O)O)CC(=O)O)CC(=O)O", "note": "[EDTA, Ethylenediaminetetraacetic acid]", "values": [{"measurement": "toxicity", "setting": "[1]", "value": "not toxic"}]}
{"smiles": "Cc1c(C)c2c(c(C)c1O)CCC(C)(CCCC(C)CCCC(C)CCCC(C)C)O2", "note": "(racemic) [dl-α-tocopherol]", "values": [{"measurement": "conjunctival irritation (redness)", "setting": "eyes of six rabbits; rabbit, in vivo", "value": "Weak to moderate conjunctival irritation"}, {"measurement": "time by which conjunctival irritation subsided", "setting": "eyes of six rabbits; rabbit, in vivo", "value": "≤ 7", "unit": "days"}, {"measurement": "corneal changes", "setting": "eyes of six rabbits; undiluted, six rabbits, eyes not rinsed", "value": "No corneal changes"}]}
{"smiles": "CC(O)CO", "note": "(centres unmarked) [Propylene Glycol]", "values": [{"measurement": "eye irritation", "setting": "eye", "value": "non-irritating"}, {"measurement": "ocular irritation", "setting": "[2]", "value": "slight eye irritant"}]}
{"smiles": "O=C([O-])CN(CCN(CC(=O)[O-])CC(=O)O)CC(=O)O.[Na+].[Na+]", "note": "[Disodium EDTA, disodium EDTA]", "values": [{"measurement": "mucous membrane irritation classification", "setting": "rabbit eyes", "value": "non-irritant"}]}
{"smiles": "CCCCCCCCCCCCCCCCCC(=O)OCC(CC)CCCC", "note": "(centres unmarked) [Ethylhexyl Stearate]", "values": [{"measurement": "phototoxicity", "setting": "human subjects; 10 subjects", "value": "not phototoxic"}, {"measurement": "photosensitisation", "setting": "human subjects; 27 subjects, some slight reactions reported", "value": "not a photosensitizer"}, {"measurement": "irritation and sensitization", "setting": "human subjects; 56 subjects", "value": "not an irritant or sensitizer"}, {"measurement": "eye injury", "setting": "rabbit's eyes; undiluted test material", "value": "did not provoke any significant injury"}, {"measurement": "max Primary irritation Index (PII)", "setting": "rabbit's eyes; undiluted, out of 100, at 1 h", "value": 4.67}, {"measurement": "skin irritation", "setting": "rabbit skin", "value": "at most mildly irritating"}, {"measurement": "mean maximum irritation index (MMII)", "setting": "skin; 10% aqueous solution", "value": 0.33}, {"measurement": "skin tolerance", "setting": "skin; 10% aqueous solution", "value": "relatively well tolerated"}, {"measurement": "mean maximum irritation index (MMII)", "setting": "skin; undiluted test material", "value": 0.67}, {"measurement": "skin tolerance", "setting": "skin; undiluted test material", "value": "poorly tolerated"}]}
{"smiles": "CC[C@H](C)[C@H]1O[C@]2(CC[C@@H]1C)C[C@@H]1C[C@@H](C/C=C(\\C)[C@@H](O[C@H]3C[C@H](OC)[C@@H](O[C@H]4C[C@H](OC)[C@@H](O)[C@H](C)O4)[C@H](C)O3)[C@@H](C)/C=C/C=C3\\CO[C@@H]4[C@H](O)C(C)=C[C@@H](C(=O)O1)[C@]34O)O2", "note": "[Ivermectin (Stromectol), ivermectin]", "values": [{"measurement": "treatment outcome", "setting": "[3]", "value": "successfully treated"}, {"measurement": "demodex mites", "setting": "demodex mites; Example 2 patient, oral 12 mg plus 4 subsequent doses, with Tea Tree Oil eyelid scrubs twice a day, over 2 months", "value": "reduced in numbers but were not completely eliminated"}, {"measurement": "elimination of demodex mites", "setting": "demodex mites; oral, a single dose, applicant's experience", "value": "does not eliminate the demodex mites"}]}
